# Species on record: Rattus norvegicus
# Test: Open TG-GATES - Regimen: Daily Repeat
# Type: toxicity, organism-based, Sprague-Dawley
# Parameters: regimen Daily Repeat, gender Male, age 6 weeks
# Details: in vivo, po, 150 mg/kg, route gavage, dose level High; for APTT / Bas / Eos / Fbg / Hb / Ht / Lym / MCH / MCHC / MCV / Mono / Neu / PT / Plat / RBC / Ret / WBC: tissue Blood; for KIDNEY_L / KIDNEY_R / KIDNEY_TOTAL: tissue Kidney; for LIVER: tissue Liver; for A/G / ALP / ALT / AST / BUN / CRE / Ca / Cl / DBIL / GLC / IP / K / LDH / Na / PL / RALB / TBIL / TC / TG / TP / gamma-GTP: tissue Plasma
structure (smiles),measurement,setting,value
O=c1ccc2ccccc2o1 [COUMARIN],TERMINAL_BW,"72 h, time 3 day",168.7 g
same,APTT,"72 h, time 3 day",14.2 s
same,Bas,"72 h, time 3 day",0%
same,Eos,"72 h, time 3 day",1%
same,Fbg,"72 h, time 3 day",193.7 mg/dL
same,Hb,"72 h, time 3 day",14.6 g/dL
same,Ht,"72 h, time 3 day",43.8%
same,Lym,"72 h, time 3 day",80.8%
same,MCH,"72 h, time 3 day",21 pg
same,MCHC,"72 h, time 3 day",33.2%
same,MCV,"72 h, time 3 day",63.2 fL
same,Mono,"72 h, time 3 day",4.8%
same,Neu,"72 h, time 3 day",13.6%
same,PT,"72 h, time 3 day",11.5 s
same,Plat,"72 h, time 3 day",117.7 x10_4/uL
same,RBC,"72 h, time 3 day",693.6 x10_4/ul
same,Ret,"72 h, time 3 day",3.5%
same,WBC,"72 h, time 3 day",97.2 x10_2/uL
same,KIDNEY_L,"72 h, time 3 day",0.8 g
same,KIDNEY_R,"72 h, time 3 day",0.8 g
same,KIDNEY_TOTAL,"72 h, time 3 day",1.6 g
same,LIVER,"72 h, time 3 day",9.5 g
same,A/G,"72 h, time 3 day",2.2
same,ALP,"72 h, time 3 day",1111.8 IU/L
same,ALT,"72 h, time 3 day",54.6 IU/L
same,AST,"72 h, time 3 day",72 IU/L
same,BUN,"72 h, time 3 day",16 mg/dL
same,CRE,"72 h, time 3 day",0.5 mg/dL
same,Ca,"72 h, time 3 day",10.9 mg/dL
same,Cl,"72 h, time 3 day",106 meq/L
same,DBIL,"72 h, time 3 day",0.072 mg/dL
same,GLC,"72 h, time 3 day",178.2 mg/dL
same,IP,"72 h, time 3 day",8 mg/dL
same,K,"72 h, time 3 day",4.8 meq/L
same,LDH,"72 h, time 3 day",162 IU/L
same,Na,"72 h, time 3 day",139.6 meq/L
same,PL,"72 h, time 3 day",168 mg/dL
same,RALB,"72 h, time 3 day",3.8 g/dL
same,TBIL,"72 h, time 3 day",0.3 mg/dL
same,TC,"72 h, time 3 day",95.2 mg/dL
same,TG,"72 h, time 3 day",30.2 mg/dL
same,TP,"72 h, time 3 day",5.6 g/dL
same,gamma-GTP,"72 h, time 3 day",1.8 IU/L
same,TERMINAL_BW,"[…], time 7 day",202.2 g
same,TERMINAL_BW,"[…], time 14 day",250.7 g
same,TERMINAL_BW,"[…], time 28 day",305.5 g
same,APTT,"[…], time 7 day",16.5 s
same,Bas,"[…], time 7 day",0%
same,Eos,"[…], time 7 day",1%
same,Fbg,"[…], time 7 day",236 mg/dL
same,Hb,"[…], time 7 day",13.3 g/dL
same,Ht,"[…], time 7 day",40.2%
same,Lym,"[…], time 7 day",81.2%
same,MCH,"[…], time 7 day",20.5 pg
same,MCHC,"[…], time 7 day",33%
same,MCV,"[…], time 7 day",62.2 fL
same,Mono,"[…], time 7 day",3.6%
same,Neu,"[…], time 7 day",14.2%
same,PT,"[…], time 7 day",11.5 s
same,Plat,"[…], time 7 day",121.9 x10_4/uL
same,RBC,"[…], time 7 day",646.6 x10_4/ul
same,Ret,"[…], time 7 day",5.4%
same,WBC,"[…], time 7 day",152.2 x10_2/uL
same,APTT,"[…], time 14 day",17.3 s
same,Bas,"[…], time 14 day",0%
same,Eos,"[…], time 14 day",1%
same,Fbg,"[…], time 14 day",238 mg/dL
same,Hb,"[…], time 14 day",13.5 g/dL
same,Ht,"[…], time 14 day",40.8%
same,Lym,"[…], time 14 day",77.6%
same,MCH,"[…], time 14 day",20 pg
same,MCHC,"[…], time 14 day",33.1%
same,MCV,"[…], time 14 day",60.5 fL
same,Mono,"[…], time 14 day",7.8%
same,Neu,"[…], time 14 day",13.8%
same,PT,"[…], time 14 day",11.4 s
same,Plat,"[…], time 14 day",129.9 x10_4/uL
same,RBC,"[…], time 14 day",674.8 x10_4/ul
same,Ret,"[…], time 14 day",5.1%
same,WBC,"[…], time 14 day",131.3 x10_2/uL
same,APTT,"[…], time 28 day",16.9 s
same,Bas,"[…], time 28 day",0%
same,Eos,"[…], time 28 day",1.2%
same,Fbg,"[…], time 28 day",229.8 mg/dL
same,Hb,"[…], time 28 day",14.7 g/dL
same,Ht,"[…], time 28 day",44.2%
same,Lym,"[…], time 28 day",79.4%
same,MCH,"[…], time 28 day",18.4 pg
same,MCHC,"[…], time 28 day",33.2%
same,MCV,"[…], time 28 day",55.3 fL
same,Mono,"[…], time 28 day",5.4%
same,Neu,"[…], time 28 day",14.2%
same,PT,"[…], time 28 day",11.4 s
same,Plat,"[…], time 28 day",120.2 x10_4/uL
same,RBC,"[…], time 28 day",800.8 x10_4/ul
same,Ret,"[…], time 28 day",2.9%
same,WBC,"[…], time 28 day",123.8 x10_2/uL
same,KIDNEY_L,"[…], time 7 day",0.9 g
same,KIDNEY_R,"[…], time 7 day",0.9 g
same,KIDNEY_TOTAL,"[…], time 7 day",1.8 g
same,KIDNEY_L,"[…], time 14 day",1.1 g
same,KIDNEY_R,"[…], time 14 day",1.1 g
same,KIDNEY_TOTAL,"[…], time 14 day",2.2 g
same,KIDNEY_L,"[…], time 28 day",1.2 g
same,KIDNEY_R,"[…], time 28 day",1.2 g
same,KIDNEY_TOTAL,"[…], time 28 day",2.4 g
same,LIVER,"[…], time 7 day",11.5 g
same,LIVER,"[…], time 14 day",14.4 g
same,LIVER,"[…], time 28 day",16.2 g
same,A/G,"[…], time 7 day",2
same,ALP,"[…], time 7 day",807 IU/L
same,ALT,"[…], time 7 day",43.8 IU/L
same,AST,"[…], time 7 day",54.4 IU/L
same,BUN,"[…], time 7 day",13 mg/dL
same,CRE,"[…], time 7 day",0.6 mg/dL
same,Ca,"[…], time 7 day",10.9 mg/dL
same,Cl,"[…], time 7 day",104.2 meq/L
same,DBIL,"[…], time 7 day",0.058 mg/dL
same,GLC,"[…], time 7 day",180.2 mg/dL
same,IP,"[…], time 7 day",7.2 mg/dL
same,K,"[…], time 7 day",4.9 meq/L
same,LDH,"[…], time 7 day",181 IU/L
same,Na,"[…], time 7 day",139.2 meq/L
same,PL,"[…], time 7 day",182.2 mg/dL
same,RALB,"[…], time 7 day",4.1 g/dL
same,TBIL,"[…], time 7 day",0.2 mg/dL
same,TC,"[…], time 7 day",101.4 mg/dL
same,TG,"[…], time 7 day",33.4 mg/dL
same,TP,"[…], time 7 day",6.2 g/dL
same,gamma-GTP,"[…], time 7 day",1.4 IU/L
same,A/G,"[…], time 14 day",1.9
same,ALP,"[…], time 14 day",789 IU/L
same,ALT,"[…], time 14 day",52.8 IU/L
same,AST,"[…], time 14 day",62.8 IU/L
same,BUN,"[…], time 14 day",16.8 mg/dL
same,CRE,"[…], time 14 day",0.6 mg/dL
same,Ca,"[…], time 14 day",11 mg/dL
same,Cl,"[…], time 14 day",106.4 meq/L
same,DBIL,"[…], time 14 day",0.072 mg/dL
same,GLC,"[…], time 14 day",181 mg/dL
same,IP,"[…], time 14 day",6.8 mg/dL
same,K,"[…], time 14 day",4.9 meq/L
same,LDH,"[…], time 14 day",188 IU/L
same,Na,"[…], time 14 day",139.8 meq/L
same,PL,"[…], time 14 day",198.6 mg/dL
same,RALB,"[…], time 14 day",4 g/dL
same,TBIL,"[…], time 14 day",0.2 mg/dL
same,TC,"[…], time 14 day",106.4 mg/dL
same,TG,"[…], time 14 day",49.4 mg/dL
same,TP,"[…], time 14 day",6.2 g/dL
same,gamma-GTP,"[…], time 14 day",1.2 IU/L
same,A/G,"[…], time 28 day",1.7
same,ALP,"[…], time 28 day",689.6 IU/L
same,ALT,"[…], time 28 day",67.2 IU/L
same,AST,"[…], time 28 day",63 IU/L
same,BUN,"[…], time 28 day",19.6 mg/dL
same,CRE,"[…], time 28 day",0.6 mg/dL
same,Ca,"[…], time 28 day",11.2 mg/dL
same,Cl,"[…], time 28 day",106.6 meq/L
same,DBIL,"[…], time 28 day",0.046 mg/dL
same,GLC,"[…], time 28 day",177.6 mg/dL
same,IP,"[…], time 28 day",6.8 mg/dL
same,K,"[…], time 28 day",4.6 meq/L
same,LDH,"[…], time 28 day",147.2 IU/L
same,Na,"[…], time 28 day",139.2 meq/L
same,PL,"[…], time 28 day",222.8 mg/dL
same,RALB,"[…], time 28 day",4.4 g/dL
same,TBIL,"[…], time 28 day",0.2 mg/dL
same,TC,"[…], time 28 day",121.8 mg/dL
same,TG,"[…], time 28 day",70.8 mg/dL
same,TP,"[…], time 28 day",6.9 g/dL
same,gamma-GTP,"[…], time 28 day",0.6 IU/L
